Data published in patent publication US8008283B2, “Methods and compositions for the treatment of neuropsychiatric disorders” (Neurotherapeutics Pharma, Inc., priority 2005, dated 2011).

Legend:
human skin = settings: Willis et al.; cited from earlier work
rats [1] = settings: Granados-Soto et al. Pain 2005; cited from earlier work
rats [2] = assay: fear potentiated startle (FPS) test in rats; format: in vivo, rat
Description: Twenty-four rats received a 30 min period of habituation to the FPS apparatus. Twenty-four hours later, baseline startle amplitudes were collected. The rats were then divided into three matched groups based on baseline startle amplitudes. […] Groups 1 and 2 therefore consisted of 8 rats each, with Group 3 consisting of […]. Following baseline startle amplitude collection, 20 light/shock pairings were delivered on two sessions over two consecutive days (i.e., 10 light/shock pairings per day). […] Immediately following injections, startle amplitudes were assessed during startle alone trials and startle plus fear (light followed by startle) trials. Fear potentiated startle (light+startle amplitudes minus startle alone amplitudes) was compared between the treatment groups.
Animals were trained and tested in four identical stabilimeter devices (Med-Associates). Briefly, each rat was placed in a small Plexiglas cylinder. The floor of each stabilimeter consisted of four 6-mm-diameter stainless steel bars spaced 18 mm apart through which shock can be delivered. Cylinder movements result in displacement of an accelerometer where the resultant voltage is proportional to the velocity of the cage displacement. Startle amplitude is defined as the maximum accelerometer voltage that occurs during the first 0.25 sec after the startle stimulus is delivered. […] Each stabilimeter was enclosed in a ventilated, light-, and sound-attenuating box. All sound level measurements were made with a Precision Sound Level Meter. The noise of a ventilating fan attached to a sidewall of each wooden box produced an overall background noise level of 64 dB. The startle stimulus was a 50 ms burst of white noise (5 ms rise-decay time) generated by a white noise generator. The visual conditioned stimulus employed was illumination of a light bulb adjacent to the white noise source. The unconditioned stimulus was a 0.6 mA foot shock with duration of 0.5 sec, generated by four constant-current shockers located outside the chamber. The presentation and sequencing of all stimuli were under the control of the microcomputer.
FPS procedures consisted of 5 days of testing; during days 1 and 2 baseline startle responses were collected, days 3 and 4 light/shock pairings were delivered, day 5 testing for fear potentiated startle was conducted.
Matching: On the first two days all rats were placed in the Plexiglas cylinders and 3 min later presented with 30 startle stimuli at a 30 sec interstimulus interval.
Training: On the following 2 days, rats were placed in the Plexiglas cylinders. […] The shock was delivered during the last 0.5 sec of the 3.7 sec CSs at an average intertrial interval of 4 min (range, 3-5 min).
These initial startle stimuli were used to again habituate the rats to the acoustic startle stimuli. Thirty seconds after the last of these stimuli, each animal received 60 startle stimuli with half of the stimuli presented alone (startle alone trials) and the other half presented 3.2 sec after the onset of the 3.7 sec CS (CS-startle trials). All startle stimuli are presented at a mean 30 sec interstimulus interval, randomly varying between 20 and 40 sec.
Measures: The treatment groups were compared on the difference in startle amplitude between CS-startle and startle-alone trials (fear potentiation).
The therapeutic efficacy of several bumetanide analogs in alleviating anxiety was examined using the fear potentiated startle (FPS) test in rats as described above.

rats [3] = assay: contextual fear conditioning in rats (freezing); format: in vivo, rat; settings: I.V. in DMSO, furosemide 100 mg/kg, bumetanide 50 mg/kg; compared with vehicle alone; FIG. 5
Description: Contextual fear conditioning involves pairing an aversive event, in this case moderate foot shock, with a distinctive environment. The strength of the fear memory is assessed using freezing, a species-typical defensive reaction in rats, marked by complete immobility, except for breathing. […] However, if they are allowed to explore the distinctive environment sometime before the immediate shock, they show intense anxiety and fear when placed back into the same environment. We can take advantage of this fact and, by procedurally dividing contextual fear conditioning into two phases, we can separately study effects of treatments on memory for the context (specifically a hippocampus based process) from learning the association between context and shock or experiencing the aversiveness of the shock (which depend upon emotional response circuitry including amygdala). […] The experiment employed 24 rats. […] Each rat was again placed into the same environment for 8 min during which time freezing was measured, as an index of Pavlovian conditioned fear. […] Measurement of freezing was accomplished through an overhead video camera connected to the microcomputer and was automatically scored using a specialty piece of software, FreezeFrame (OER Inc., Reston, Va.). Total freezing time was analyzed in a one-way analysis of variance (ANOVA) test, with drug dose as the […] factor.

| Compound | sensory nerve activation, itch and flare responses induced by histamine (human skin) | formalin-induced nociception (rats [1]) | difference score one week after treatment (rats [2]; compared with vehicle alone, FIG. 10) | statistical difference from vehicle in difference score one week after treatment (rats [2]; error bars large for vehicle-treated animals) | difference score (startle alone - fear potentiated startle) on the test day (rats [2]; i.v. in DMSO, furosemide 100 mg/kg, bumetanide 70 mg/kg, compared with vehicle alone, FIG. 8) | freezing (rats [3]) |
| --- | --- | --- | --- | --- | --- | --- |
| CCCc1c2oc(C(=O)O)cc(=O)c2cc2c(=O)cc(C(=O)O)n(CC)c12 [nedocromil sodium] | inhibit sensory nerve activation to reduce the itch and flare responses | – | – | – | – | – |
| NS(=O)(=O)c1cc(C(=O)O)cc(N2CCCC2)c1Oc1ccccc1 [piretanide] | – | reduced | – | – | – | – |
| CCCCNc1cc(C(=O)O)cc(S(N)(=O)=O)c1Oc1ccccc1 [bumetanide] | inhibit sensory nerve activation to reduce the itch and flare responses | reduced | higher difference score | does not imply any statistically significant difference | statistically significantly lower difference score | significantly less freezing |
